Data published in article PMC11062922 (Nature Chemical Biology, 2023).

Experiments:
Assay in all cases: Kinobeads competition binding profiling, two doses (100 nM and 1 µM);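 further: inhibitor preincubated 45 min at 4 °C in cell lysate, then bead pulldown. Bound protein quantified by label-free mass spectrometry relative to DMSO vehicle control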
[1] = biological target: T1, endogenous kinases and other proteins enriched by Kinobeads from mixed lysates of K-562, COLO-205, MV-4-11, SK-N-BE(2) and OVCAR-8 (Homo sapiens, UniProt P42680); conditions: read-out: Lestaurtinib Drugmatrix value, Gene Name TEC; target TEC; one Lestaurtinib control experiment/replicate (R1-R3)
T1 construct: to maximize the representation of endogenous proteins; endogenous in cells

[2] = biological target: T2, endogenous kinases and other proteins enriched by Kinobeads from mixed lysates of K-562, COLO-205, MV-4-11, SK-N-BE(2) and OVCAR-8 (Homo sapiens, UniProt Q13188); conditions: read-out: Lestaurtinib Drugmatrix value, Gene Name STK3; target STK3; one Lestaurtinib control experiment/replicate (R1-R3)
T2 construct: endogenous in cells

[3] = biological target: T3, endogenous kinases and other proteins enriched by Kinobeads from mixed lysates of K-562, COLO-205, MV-4-11, SK-N-BE(2) and OVCAR-8 (Homo sapiens, UniProt Q13882); conditions: read-out: Lestaurtinib Drugmatrix value, Gene Name PTK6; target PTK6; one Lestaurtinib control experiment/replicate (R1-R3)
T3 construct: endogenous in cells

[4] = biological target: T4, endogenous kinases and other proteins enriched by Kinobeads from mixed lysates of K-562, COLO-205, MV-4-11, SK-N-BE(2) and OVCAR-8 (Homo sapiens, UniProt Q8WZ42); conditions: read-out: Lestaurtinib Drugmatrix value, Gene Name TTN; target TTN; one Lestaurtinib control experiment/replicate (R1-R3)
T4 construct: endogenous in cells

[5] = biological target: T5, endogenous kinases and other proteins enriched by Kinobeads from mixed lysates of K-562, COLO-205, MV-4-11, SK-N-BE(2) and OVCAR-8 (Homo sapiens, UniProt O60674); conditions: JAK2(JH1domain-catalytic)
T5 construct: endogenous in cells

[6] = biological target: T6, endogenous kinases and other proteins enriched by Kinobeads from mixed lysates of K-562, COLO-205, MV-4-11, SK-N-BE(2) and OVCAR-8 (Homo sapiens, UniProt O75716); conditions: STK16
T6 construct: endogenous in cells

[7] = biological target: T7, endogenous kinases and other proteins enriched by Kinobeads from mixed lysates of K-562, COLO-205, MV-4-11, SK-N-BE(2) and OVCAR-8 (Homo sapiens, UniProt P49759); conditions: CLK1
T7 construct: endogenous in cells

[8] = biological target: T8, endogenous kinases and other proteins enriched by Kinobeads from mixed lysates of K-562, COLO-205, MV-4-11, SK-N-BE(2) and OVCAR-8 (Homo sapiens, UniProt P49760); conditions: CLK2
T8 construct: endogenous in cells

[9] = biological target: T9, endogenous kinases and other proteins enriched by Kinobeads from mixed lysates of K-562, COLO-205, MV-4-11, SK-N-BE(2) and OVCAR-8 (Homo sapiens, UniProt P51955); conditions: NEK2
T9 construct: endogenous in cells

[10] = biological target: T10, endogenous kinases and other proteins enriched by Kinobeads from mixed lysates of K-562, COLO-205, MV-4-11, SK-N-BE(2) and OVCAR-8 (Homo sapiens, UniProt Q08345); conditions: DDR1
T10 construct: endogenous in cells

[11] = biological target: T11, endogenous kinases and other proteins enriched by Kinobeads from mixed lysates of K-562, COLO-205, MV-4-11, SK-N-BE(2) and OVCAR-8 (Homo sapiens, UniProt Q12866); conditions: MERTK
T11 construct: endogenous in cells

[12] = biological target: T12, endogenous kinases and other proteins enriched by Kinobeads from mixed lysates of K-562, COLO-205, MV-4-11, SK-N-BE(2) and OVCAR-8 (Homo sapiens, UniProt Q13131); conditions: AMPK-alpha1
T12 construct: endogenous in cells

[13] = biological target: T13, endogenous kinases and other proteins enriched by Kinobeads from mixed lysates of K-562, COLO-205, MV-4-11, SK-N-BE(2) and OVCAR-8 (Homo sapiens, UniProt Q13163); conditions: MEK5
T13 construct: endogenous in cells

[14] = biological target: T14, endogenous kinases and other proteins enriched by Kinobeads from mixed lysates of K-562, COLO-205, MV-4-11, SK-N-BE(2) and OVCAR-8 (Homo sapiens, UniProt Q15418); conditions: RSK1(Kin.Dom.1-N-terminal)
T14 construct: endogenous in cells

[15] = biological target: T15, endogenous kinases and other proteins enriched by Kinobeads from mixed lysates of K-562, COLO-205, MV-4-11, SK-N-BE(2) and OVCAR-8 (Homo sapiens, UniProt Q16584); conditions: MLK3
T15 construct: endogenous in cells

[16] = biological target: T16, endogenous kinases and other proteins enriched by Kinobeads from mixed lysates of K-562, COLO-205, MV-4-11, SK-N-BE(2) and OVCAR-8 (Homo sapiens, UniProt Q16832); conditions: DDR2
T16 construct: endogenous in cells

[17] = biological target: T17, endogenous kinases and other proteins enriched by Kinobeads from mixed lysates of K-562, COLO-205, MV-4-11, SK-N-BE(2) and OVCAR-8 (Homo sapiens, UniProt Q8TD19); conditions: NEK9
T17 construct: endogenous in cells

[18] = biological target: T18, endogenous kinases and other proteins enriched by Kinobeads from mixed lysates of K-562, COLO-205, MV-4-11, SK-N-BE(2) and OVCAR-8 (Homo sapiens, UniProt Q9HC98); conditions: NEK6
T18 construct: endogenous in cells

[19] = biological target: T19, endogenous kinases and other proteins enriched by Kinobeads from mixed lysates of K-562, COLO-205, MV-4-11, SK-N-BE(2) and OVCAR-8 (Homo sapiens, UniProt Q9UHD2); conditions: TBK1
T19 construct: endogenous in cells

[20] = biological target: T20, endogenous kinases and other proteins enriched by Kinobeads from mixed lysates of K-562, COLO-205, MV-4-11, SK-N-BE(2) and OVCAR-8 (Homo sapiens, UniProt Q9Y463); conditions: DYRK1B
T20 construct: endogenous in cells

[21] = biological target: T21, endogenous kinases and other proteins enriched by Kinobeads from mixed lysates of K-562, COLO-205, MV-4-11, SK-N-BE(2) and OVCAR-8 (Homo sapiens, UniProt Q9Y6R4); conditions: MAP3K4
T21 construct: to maximize the representation of endogenous proteins; endogenous in cells

T10 sequence (Q08345 19-913): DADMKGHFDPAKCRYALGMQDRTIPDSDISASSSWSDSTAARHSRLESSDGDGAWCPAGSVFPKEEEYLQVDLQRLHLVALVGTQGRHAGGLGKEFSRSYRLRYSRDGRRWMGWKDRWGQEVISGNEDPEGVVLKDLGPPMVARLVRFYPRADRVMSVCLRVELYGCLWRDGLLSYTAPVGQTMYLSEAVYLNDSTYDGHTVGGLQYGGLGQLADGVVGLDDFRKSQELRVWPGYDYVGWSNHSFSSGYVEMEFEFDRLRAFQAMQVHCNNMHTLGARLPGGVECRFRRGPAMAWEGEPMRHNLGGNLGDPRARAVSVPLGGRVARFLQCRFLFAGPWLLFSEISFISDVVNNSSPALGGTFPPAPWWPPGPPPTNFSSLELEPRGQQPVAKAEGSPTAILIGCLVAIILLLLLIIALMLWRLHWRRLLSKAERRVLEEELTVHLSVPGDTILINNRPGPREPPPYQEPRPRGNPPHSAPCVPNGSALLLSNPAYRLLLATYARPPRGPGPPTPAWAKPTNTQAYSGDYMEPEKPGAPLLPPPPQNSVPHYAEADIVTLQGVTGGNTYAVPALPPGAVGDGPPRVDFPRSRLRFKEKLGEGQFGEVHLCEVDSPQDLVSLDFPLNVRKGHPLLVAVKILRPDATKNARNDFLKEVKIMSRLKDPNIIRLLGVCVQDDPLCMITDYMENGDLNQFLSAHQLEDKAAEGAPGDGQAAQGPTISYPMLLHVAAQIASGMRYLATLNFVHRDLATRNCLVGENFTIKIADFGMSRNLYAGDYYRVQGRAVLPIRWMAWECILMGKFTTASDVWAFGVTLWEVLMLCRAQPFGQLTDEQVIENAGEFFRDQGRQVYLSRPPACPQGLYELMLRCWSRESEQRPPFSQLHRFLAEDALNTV
T20 sequence (Q9Y463 whole entry): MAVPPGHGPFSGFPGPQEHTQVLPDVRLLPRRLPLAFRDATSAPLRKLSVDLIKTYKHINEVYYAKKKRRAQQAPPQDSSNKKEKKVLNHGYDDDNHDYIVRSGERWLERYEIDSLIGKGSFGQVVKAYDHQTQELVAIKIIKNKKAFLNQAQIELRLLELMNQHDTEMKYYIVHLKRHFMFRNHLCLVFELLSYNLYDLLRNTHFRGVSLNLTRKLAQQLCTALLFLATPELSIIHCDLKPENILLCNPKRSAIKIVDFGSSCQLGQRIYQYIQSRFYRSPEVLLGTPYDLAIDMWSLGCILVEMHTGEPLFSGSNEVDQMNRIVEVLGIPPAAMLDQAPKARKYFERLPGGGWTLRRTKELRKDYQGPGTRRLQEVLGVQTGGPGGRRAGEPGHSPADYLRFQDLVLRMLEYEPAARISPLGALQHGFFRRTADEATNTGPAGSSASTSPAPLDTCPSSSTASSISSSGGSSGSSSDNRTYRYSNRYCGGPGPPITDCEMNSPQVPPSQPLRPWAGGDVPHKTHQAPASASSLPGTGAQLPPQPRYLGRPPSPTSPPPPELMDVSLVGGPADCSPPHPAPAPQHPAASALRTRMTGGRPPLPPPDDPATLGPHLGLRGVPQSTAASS
T8 sequence (P49760 whole entry): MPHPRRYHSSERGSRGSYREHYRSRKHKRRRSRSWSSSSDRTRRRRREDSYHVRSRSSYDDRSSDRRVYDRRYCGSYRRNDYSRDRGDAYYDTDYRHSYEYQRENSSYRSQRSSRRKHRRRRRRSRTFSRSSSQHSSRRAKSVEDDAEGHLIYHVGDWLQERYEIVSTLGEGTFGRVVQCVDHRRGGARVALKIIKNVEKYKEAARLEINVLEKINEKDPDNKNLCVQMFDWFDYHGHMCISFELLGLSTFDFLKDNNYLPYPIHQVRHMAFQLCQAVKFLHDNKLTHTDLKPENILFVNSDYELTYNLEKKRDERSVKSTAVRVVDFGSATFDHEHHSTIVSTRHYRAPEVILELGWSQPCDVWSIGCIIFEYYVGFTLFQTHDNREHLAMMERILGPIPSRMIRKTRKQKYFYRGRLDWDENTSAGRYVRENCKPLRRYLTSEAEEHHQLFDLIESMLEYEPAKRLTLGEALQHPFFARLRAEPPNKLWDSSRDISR
T15 sequence (Q16584 whole entry): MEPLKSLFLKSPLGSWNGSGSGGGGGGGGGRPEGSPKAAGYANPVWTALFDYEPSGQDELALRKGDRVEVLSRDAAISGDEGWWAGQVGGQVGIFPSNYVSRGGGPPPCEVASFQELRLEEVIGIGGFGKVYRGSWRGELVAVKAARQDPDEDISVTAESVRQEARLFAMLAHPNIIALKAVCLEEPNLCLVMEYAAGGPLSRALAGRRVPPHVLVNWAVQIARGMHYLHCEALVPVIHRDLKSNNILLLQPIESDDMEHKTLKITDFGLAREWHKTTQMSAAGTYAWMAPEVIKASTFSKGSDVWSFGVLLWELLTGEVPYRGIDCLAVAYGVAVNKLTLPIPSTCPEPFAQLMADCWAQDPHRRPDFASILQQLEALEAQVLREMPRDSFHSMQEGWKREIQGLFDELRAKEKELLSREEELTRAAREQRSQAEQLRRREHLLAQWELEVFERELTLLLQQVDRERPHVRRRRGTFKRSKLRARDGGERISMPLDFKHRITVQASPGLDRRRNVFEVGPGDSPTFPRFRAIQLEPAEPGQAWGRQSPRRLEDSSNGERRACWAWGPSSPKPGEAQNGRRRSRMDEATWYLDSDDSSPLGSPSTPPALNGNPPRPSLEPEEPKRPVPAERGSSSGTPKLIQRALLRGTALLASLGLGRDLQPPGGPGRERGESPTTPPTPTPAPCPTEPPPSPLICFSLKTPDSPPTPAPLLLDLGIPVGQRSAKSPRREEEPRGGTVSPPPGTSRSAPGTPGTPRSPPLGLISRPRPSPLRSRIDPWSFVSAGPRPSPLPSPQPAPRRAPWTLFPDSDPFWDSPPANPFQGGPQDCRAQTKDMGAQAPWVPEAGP
T12 sequence (Q13131 whole entry): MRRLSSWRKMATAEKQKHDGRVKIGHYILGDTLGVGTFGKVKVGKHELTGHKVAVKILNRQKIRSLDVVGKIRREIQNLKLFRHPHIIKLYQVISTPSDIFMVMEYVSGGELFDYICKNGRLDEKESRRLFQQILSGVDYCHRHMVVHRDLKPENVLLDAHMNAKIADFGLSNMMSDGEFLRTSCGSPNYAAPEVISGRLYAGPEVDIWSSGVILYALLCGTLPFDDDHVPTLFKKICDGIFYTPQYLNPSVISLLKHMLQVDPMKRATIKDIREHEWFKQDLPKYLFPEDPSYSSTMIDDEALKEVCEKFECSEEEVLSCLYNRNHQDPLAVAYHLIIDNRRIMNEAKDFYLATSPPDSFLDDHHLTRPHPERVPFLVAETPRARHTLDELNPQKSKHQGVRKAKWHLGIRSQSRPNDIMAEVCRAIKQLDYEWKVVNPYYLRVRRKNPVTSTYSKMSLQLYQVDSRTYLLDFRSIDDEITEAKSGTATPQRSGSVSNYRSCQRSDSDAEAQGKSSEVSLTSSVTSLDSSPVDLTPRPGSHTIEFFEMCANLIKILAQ
T3 sequence (Q13882 whole entry): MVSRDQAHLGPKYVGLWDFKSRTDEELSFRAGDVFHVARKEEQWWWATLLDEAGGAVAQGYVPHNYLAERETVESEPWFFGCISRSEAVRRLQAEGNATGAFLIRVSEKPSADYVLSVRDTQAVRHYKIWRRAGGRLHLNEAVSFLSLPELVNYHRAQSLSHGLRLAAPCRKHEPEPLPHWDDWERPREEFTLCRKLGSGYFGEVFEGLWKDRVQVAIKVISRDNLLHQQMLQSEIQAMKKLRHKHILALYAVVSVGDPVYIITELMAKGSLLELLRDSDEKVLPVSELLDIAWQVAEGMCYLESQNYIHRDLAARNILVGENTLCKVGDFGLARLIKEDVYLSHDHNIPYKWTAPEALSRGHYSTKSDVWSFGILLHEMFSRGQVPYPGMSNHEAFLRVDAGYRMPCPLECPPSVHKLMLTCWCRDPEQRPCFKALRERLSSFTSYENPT
T6 sequence (O75716 whole entry): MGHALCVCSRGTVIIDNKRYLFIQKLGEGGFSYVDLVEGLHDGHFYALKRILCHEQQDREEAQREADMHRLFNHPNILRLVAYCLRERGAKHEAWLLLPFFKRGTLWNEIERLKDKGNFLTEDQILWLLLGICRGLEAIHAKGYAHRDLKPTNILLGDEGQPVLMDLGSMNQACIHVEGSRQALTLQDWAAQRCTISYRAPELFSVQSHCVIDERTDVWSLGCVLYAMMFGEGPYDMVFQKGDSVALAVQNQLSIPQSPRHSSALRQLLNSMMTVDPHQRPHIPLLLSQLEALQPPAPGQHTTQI
T1 sequence (P42680 whole entry): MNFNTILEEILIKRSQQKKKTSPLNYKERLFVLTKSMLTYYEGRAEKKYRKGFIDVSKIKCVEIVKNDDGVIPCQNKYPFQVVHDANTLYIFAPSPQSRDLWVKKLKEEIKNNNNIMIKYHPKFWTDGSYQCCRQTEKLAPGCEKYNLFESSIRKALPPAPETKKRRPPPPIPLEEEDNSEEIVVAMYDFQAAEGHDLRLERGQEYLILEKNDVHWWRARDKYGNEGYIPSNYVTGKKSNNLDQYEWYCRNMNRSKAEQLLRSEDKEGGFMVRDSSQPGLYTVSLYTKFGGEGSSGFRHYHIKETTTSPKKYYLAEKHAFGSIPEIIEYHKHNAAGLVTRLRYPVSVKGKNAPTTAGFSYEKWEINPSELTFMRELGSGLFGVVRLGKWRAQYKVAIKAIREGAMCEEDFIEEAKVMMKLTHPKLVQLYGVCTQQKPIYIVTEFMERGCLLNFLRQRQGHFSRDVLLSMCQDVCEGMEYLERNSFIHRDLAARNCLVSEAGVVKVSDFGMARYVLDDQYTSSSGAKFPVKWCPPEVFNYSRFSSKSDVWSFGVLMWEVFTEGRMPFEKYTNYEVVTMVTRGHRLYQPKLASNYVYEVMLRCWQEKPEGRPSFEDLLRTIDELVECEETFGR

C[C@]12O[C@H](C[C@]1(O)CO)n1c3ccccc3c3c4c(c5c6ccccc6n2c5c31)CNC4=O [Lestaurtinib]
0.533 µM: potency estimated from few doses [3]
0.895 µM: potency estimated from few doses [1]
0.737 µM: potency estimated from few doses [4]
0.0391 µM: potency estimated from few doses [2]

COc1cc(Nc2ncc3c(C)nc(-c4cc5ccccc5[nH]4)n3n2)cc(OC)c1OC [GW869516X]
no target: Kinobeads Data [5] | Kinobeads Data [6] | Kinobeads Data [7] | Kinobeads Data [8] | Kinobeads Data [9] | Kinobeads Data [10] | Kinobeads Data [11] | Kinobeads Data [12] | Kinobeads Data [13] | Kinobeads Data [14] | Kinobeads Data [15] | Kinobeads Data [16] | Kinobeads Data [17] | Kinobeads Data [18] | Kinobeads Data [19] | Kinobeads Data [20] | Kinobeads Data [21]
